# Test system: spontaneously hypertensive rats (SHR)
# Experiment: Evaluation of hypotensive effect of FH1041 with added hydroxyhydroquinone (Example 3)
# Type: in vivo, rat
# Conditions: oral, HHQ added to FH1041 (300 mg/kg as total chlorogenic acids)
# Method: (a) As in Example 2, 12-week-old male spontaneously hypertensive rats (SHR) was bred preliminarily.
# (B) Administration Method and Amount: • Physiological saline was orally administered to a control group. An extract from raw coffee beans (“Flavor Holder FH1041”, product of T. Hasegawa Co., Ltd.) having chlorogenic acids as a main component was administered to a comparison group. The extract was prepared so that its administration amount would be 300 mg/kg in terms of the total chlorogenic acid amount. In test group 1, an administration material was prepared to permit the administration of FH1041 in an amount of 300 mg/kg in terms of a total chlorogenic acid amount and the administration of hydroxyhydroquinone in an amount of 0.03 mg/kg (0.01% relative to the total chlorogenic acid amount). In test group 2, an administration material was prepared to permit the administration of FH1041 in an amount of 300 mg/kg in terms of a total chlorogenic acid amount and the administration of hydroxyhydroquinone in an amount of 0.3 mg/kg (0.1% relative to the total chlorogenic acid amount). […]
# Test method: One group consisted of three SHR. Systolic blood pressures of the caudal artery were measured prior to oral administration and 12 hours after administration and based on them, a percent change in blood pressure was calculated. […]
smiles,measurement,value
Oc1ccc(O)c(O)c1 [hydroxyhydroquinone],Influence on the hypotensive effect of chlorogenic acids,disturbed
